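Five compound concentrations were applied to cells in 96-well plates for 48 hours; endpoints were derived by simple linear interpolation of the resulting dose-response curve. GI50 is the concentration that inhibits growth by half. At the TGI there is no net growth.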
Tests used:
Assay in all cases: growth of human tumour cells (NCI), 48 h
HOP-62 NSCLC = tested on: HOP-62 NSCLC
CAKI-1 renal = tested on: CAKI-1 renal
PC-3 prostate = tested on: PC-3 prostate
HCT-15 colon = tested on: HCT-15 colon
OVCAR-5 ovarian = tested on: OVCAR-5 ovarian
T-47D breast = tested on: T-47D breast
SK-OV-3 ovarian = tested on: SK-OV-3 ovarian
SK-MEL-5 melanoma = tested on: SK-MEL-5 melanoma
RPMI-8226 leukemia = tested on: RPMI-8226 leukemia
SK-MEL-2 melanoma = tested on: SK-MEL-2 melanoma
OVCAR-4 ovarian = tested on: OVCAR-4 ovarian
U251 CNS = tested on: U251 CNS
OVCAR-8 ovarian = tested on: OVCAR-8 ovarian
NCI/ADR-RES ovarian = tested on: NCI/ADR-RES ovarian
DU-145 prostate = tested on: DU-145 prostate
SW-620 colon = tested on: SW-620 colon
HL-60(TB) leukemia = tested on: HL-60(TB) leukemia
SF-268 CNS = tested on: SF-268 CNS
HS 578T breast = tested on: HS 578T breast
SK-MEL-28 melanoma = tested on: SK-MEL-28 melanoma
SF-295 CNS = tested on: SF-295 CNS
MOLT-4 leukemia = tested on: MOLT-4 leukemia
SNB-75 CNS = tested on: SNB-75 CNS
A498 renal = tested on: A498 renal
SNB-19 CNS = tested on: SNB-19 CNS
CCRF-CEM leukemia = tested on: CCRF-CEM leukemia
NCI-H460 lung = tested on: NCI-H460 lung
MALME-3M melanoma = tested on: MALME-3M melanoma
786-0 renal = tested on: 786-0 renal
MCF7 breast = tested on: MCF7 breast
SR leukemia = tested on: SR leukemia
UACC-257 melanoma = tested on: UACC-257 melanoma
COLO 205 colon = tested on: COLO 205 colon
EKVX NSCLC = tested on: EKVX NSCLC
HCT-116 colon = tested on: HCT-116 colon
OVCAR-3 ovarian = tested on: OVCAR-3 ovarian
SN12C renal = tested on: SN12C renal
K-562 leukemia = tested on: K-562 leukemia
A549 NSCLC = tested on: A549 NSCLC
MDA-N = tested on: MDA-N
HT29 colon = tested on: HT29 colon
TK-10 renal = tested on: TK-10 renal
KM12 colon = tested on: KM12 colon
IGROV1 ovarian = tested on: IGROV1 ovarian
UO-31 renal = tested on: UO-31 renal
MDA-MB-231 breast = tested on: MDA-MB-231 breast
HCC-2998 colon = tested on: HCC-2998 colon
ACHN renal = tested on: ACHN renal
LOX IMVI melanoma = tested on: LOX IMVI melanoma
NCI-H23 lung = tested on: NCI-H23 lung
M14 melanoma = tested on: M14 melanoma
HOP-92 NSCLC = tested on: HOP-92 NSCLC
UACC-62 melanoma = tested on: UACC-62 melanoma
NCI-H226 lung = tested on: NCI-H226 lung
MDA-MB-435 = tested on: MDA-MB-435
RXF 393 renal = tested on: RXF 393 renal
NCI-H522 lung = tested on: NCI-H522 lung
SF-539 CNS = tested on: SF-539 CNS

CC1CN=C(N(C(=O)Nc2ccccc2)c2ccccc2)S1 (centres undefined)
TGI (HOP-62 NSCLC): > 100 µM
TGI (CAKI-1 renal): > 100 µM
TGI (PC-3 prostate): > 100 µM
TGI (HCT-15 colon): > 100 µM
TGI (OVCAR-5 ovarian): > 100 µM
TGI (T-47D breast): > 100 µM
TGI (SK-OV-3 ovarian): > 100 µM
TGI (SK-MEL-5 melanoma): 31.8 µM
TGI (RPMI-8226 leukemia): 67.9 µM
TGI (SK-MEL-2 melanoma): 40.5 µM
TGI (OVCAR-4 ovarian): > 100 µM
TGI (U251 CNS): > 100 µM
TGI (OVCAR-8 ovarian): > 100 µM
TGI (NCI/ADR-RES ovarian): 71.5 µM
TGI (DU-145 prostate): > 100 µM
TGI (SW-620 colon): > 100 µM
TGI (HL-60(TB) leukemia): 66.4 µM
TGI (SF-268 CNS): > 100 µM
TGI (HS 578T breast): > 100 µM
TGI (SK-MEL-28 melanoma): 31.9 µM
TGI (SF-295 CNS): > 100 µM
TGI (MOLT-4 leukemia): 61.6 µM
TGI (SNB-75 CNS): > 100 µM
TGI (A498 renal): 51.2 µM
TGI (SNB-19 CNS): > 100 µM
TGI (CCRF-CEM leukemia): 64 µM
TGI (NCI-H460 lung): > 100 µM
TGI (MALME-3M melanoma): 58.8 µM
TGI (786-0 renal): > 100 µM
TGI (MCF7 breast): 49.7 µM
TGI (SR leukemia): 81.5 µM
TGI (UACC-257 melanoma): 64.7 µM
TGI (COLO 205 colon): > 100 µM
TGI (EKVX NSCLC): > 100 µM
TGI (HCT-116 colon): > 100 µM
TGI (OVCAR-3 ovarian): 82.2 µM
TGI (SN12C renal): 62.9 µM
TGI (K-562 leukemia): > 100 µM
TGI (A549 NSCLC): > 100 µM
TGI (MDA-N): 48.2 µM
TGI (HT29 colon): 36.6 µM
TGI (TK-10 renal): 94.2 µM
TGI (KM12 colon): > 100 µM
TGI (IGROV1 ovarian): > 100 µM
TGI (UO-31 renal): > 100 µM
TGI (MDA-MB-231 breast): > 100 µM
TGI (HCC-2998 colon): > 100 µM
TGI (ACHN renal): > 100 µM
TGI (LOX IMVI melanoma): 37.4 µM
TGI (NCI-H23 lung): > 100 µM

CCCc1cc2c(cc1O)CC[C@@H]1[C@@H]2CC[C@]2(C)[C@@H](O)CC[C@@H]12
TGI (M14 melanoma): 23 µM
GI50 (HOP-62 NSCLC): 16 µM
TGI (HOP-62 NSCLC): 34.2 µM
TGI (HOP-92 NSCLC): 33.6 µM
GI50 (UACC-62 melanoma): 6.02 µM
TGI (UACC-62 melanoma): 19.4 µM
TGI (CAKI-1 renal): 24.8 µM
TGI (PC-3 prostate): 34.5 µM
TGI (HCT-15 colon): 18.1 µM
TGI (OVCAR-5 ovarian): 34.7 µM
TGI (T-47D breast): 32.6 µM
TGI (SK-OV-3 ovarian): 29.1 µM
TGI (SK-MEL-5 melanoma): 22.4 µM
TGI (SK-MEL-2 melanoma): 30.2 µM
TGI (OVCAR-4 ovarian): 32.7 µM
TGI (U251 CNS): 20.3 µM
TGI (OVCAR-8 ovarian): 29.1 µM
TGI (NCI/ADR-RES ovarian): 27.1 µM
GI50 (DU-145 prostate): 18.8 µM
TGI (DU-145 prostate): 32.8 µM
TGI (NCI-H226 lung): 27.5 µM
TGI (SW-620 colon): 17.2 µM
TGI (HL-60(TB) leukemia): 29.7 µM
TGI (SF-268 CNS): 28.6 µM
TGI (HS 578T breast): 32.3 µM
TGI (SK-MEL-28 melanoma): 25.8 µM
TGI (SF-295 CNS): 17.8 µM
TGI (MOLT-4 leukemia): 20.4 µM
TGI (SNB-75 CNS): 29.3 µM
TGI (A498 renal): 32.3 µM
TGI (SNB-19 CNS): 26.3 µM
TGI (CCRF-CEM leukemia): 20.9 µM
TGI (NCI-H460 lung): 24.4 µM
TGI (MALME-3M melanoma): 27.9 µM
TGI (786-0 renal): 26.6 µM
GI50 (MDA-MB-435): 2.19 µM
TGI (MDA-MB-435): 5.1 µM
TGI (RXF 393 renal): 22.1 µM
TGI (SR leukemia): 13.4 µM
TGI (UACC-257 melanoma): 25.8 µM
TGI (COLO 205 colon): 34.5 µM
TGI (EKVX NSCLC): 26.2 µM
GI50 (HCT-116 colon): 6.54 µM
TGI (HCT-116 colon): 19.8 µM
TGI (OVCAR-3 ovarian): 24.4 µM
TGI (SN12C renal): 24.7 µM
TGI (K-562 leukemia): 13.6 µM
TGI (A549 NSCLC): 22.9 µM
TGI (MDA-N): 6.05 µM
TGI (HT29 colon): 31.1 µM
TGI (TK-10 renal): 30.1 µM
TGI (KM12 colon): 22.6 µM
TGI (IGROV1 ovarian): 30.2 µM
TGI (NCI-H522 lung): 24.9 µM
TGI (UO-31 renal): 24.6 µM
TGI (MDA-MB-231 breast): 40.8 µM
TGI (HCC-2998 colon): 33 µM
TGI (ACHN renal): 25.6 µM
TGI (LOX IMVI melanoma): 24 µM
TGI (NCI-H23 lung): 29.2 µM
TGI (SF-539 CNS): 24.4 µM

CC(NNC(=S)N1CCCCCC1)c1cccnn1 (centres undefined)
TGI (M14 melanoma): 4.94 µM
TGI (HOP-62 NSCLC): > 32.5 µM
TGI (UACC-62 melanoma): 1.14 µM
TGI (CAKI-1 renal): > 100 µM
TGI (PC-3 prostate): > 100 µM
TGI (HCT-15 colon): > 100 µM
TGI (T-47D breast): > 35.1 µM
TGI (SK-OV-3 ovarian): 20.7 µM
TGI (SK-MEL-5 melanoma): 2.31 µM
TGI (RPMI-8226 leukemia): > 100 µM
TGI (SK-MEL-2 melanoma): > 78.8 µM
TGI (U251 CNS): > 80.4 µM
TGI (OVCAR-8 ovarian): > 100 µM
TGI (NCI/ADR-RES ovarian): > 88.8 µM
TGI (DU-145 prostate): > 100 µM
TGI (NCI-H226 lung): > 43.4 µM
TGI (SW-620 colon): > 100 µM
TGI (HL-60(TB) leukemia): > 32.2 µM
TGI (HS 578T breast): > 100 µM
TGI (SK-MEL-28 melanoma): > 34.5 µM
TGI (SF-295 CNS): > 39.6 µM
TGI (MOLT-4 leukemia): > 100 µM
TGI (SNB-75 CNS): > 43.4 µM
TGI (A498 renal): 9.82 µM
TGI (CCRF-CEM leukemia): 1.1 µM
TGI (NCI-H460 lung): > 21.6 µM
TGI (MALME-3M melanoma): > 100 µM
TGI (786-0 renal): > 100 µM
TGI (MDA-MB-435): > 56.2 µM
TGI (MCF7 breast): 0.901 µM
TGI (RXF 393 renal): 0.57 µM
TGI (SR leukemia): > 100 µM
TGI (UACC-257 melanoma): 3.77 µM
TGI (COLO 205 colon): > 100 µM
TGI (OVCAR-3 ovarian): > 100 µM
TGI (SN12C renal): > 100 µM
TGI (K-562 leukemia): > 58.7 µM
TGI (MDA-N): > 100 µM
TGI (HT29 colon): > 100 µM
TGI (TK-10 renal): > 33.3 µM
TGI (KM12 colon): > 100 µM
TGI (UO-31 renal): 2.67 µM
TGI (MDA-MB-231 breast): > 100 µM
TGI (HCC-2998 colon): > 100 µM
TGI (ACHN renal): 3.09 µM
TGI (LOX IMVI melanoma): > 100 µM
TGI (NCI-H23 lung): > 100 µM
TGI (SF-539 CNS): 0.939 µM

Source: PubChem BioAssay (NCI)
